Reference: ChEMBL document CHEMBL1143733, “Synthesis and structure-antituberculosis activity relationship of 1H-indole-2,3-dione derivatives” (Bioorg Med Chem, 2007)
Converted amounts (≈) assume the structure as drawn.

Columns and labels:
[1] = tested on: Mycobacterium tuberculosis; test: Growth inhibition of Mycobacterium tuberculosis H37Rv at 6.25 ug/mL by microplate alamar blue assay; format: functional; settings: read-out: GI
[2] = tested on: Mycobacterium tuberculosis; test: Antituberculosis activity against Mycobacterium tuberculosis H37Rv by microplate alamar blue assay; format: functional
Vero = test: Cytotoxicity against Vero cells; format: cell-based; settings: Chlorocebus sabaeus

SMILES | inhibition of growth at 6.25 µg/mL [1] [%] | MIC [2] [µg/mL] | IC50 (Vero) [µg/mL]
O=C1Nc2ccc([N+](=O)[O-])cc2/C1=N/NC(=S)Nc1ccc(F)cc1 | 24 | – | –
CNC(=S)N/N=C1\C(=O)N(CN2CCCCC2)c2ccc(F)cc21 | 20 | – | –
C=CCNC(=S)N/N=C1\C(=O)N(CN2CCOCC2)c2ccc(F)cc21 | 24 | – | –
C=CCNC(=S)N/N=C1\C(=O)N(CN2CCCCC2)c2ccc(F)cc21 | 20 | – | –
C=CCNC(=S)N/N=C1\C(=O)N(CN2CCCCC2)c2ccc([N+](=O)[O-])cc21 | 22 | – | –
CCN1C(=O)CS/C1=N/N=C1\C(=O)Nc2ccc([N+](=O)[O-])cc21 | 0 | – | –
CCCCNC(=S)N/N=C1\C(=O)N(CN2CCOCC2)c2ccc([N+](=O)[O-])cc21 | 30 | – | –
O=C1/C(=N\NC(=S)NC2CCCCC2)c2cc([N+](=O)[O-])ccc2N1CN1CCOCC1 | 90 | 6.25 (≈ 14 µM) | –
O=C1/C(=N\NC(=S)Nc2ccccc2)c2cc([N+](=O)[O-])ccc2N1CN1CCOCC1 | 93 | > 6.25 | 2.8 (≈ 6.36 µM)
O=C1/C(=N\NC(=S)NC2CCCCC2)c2cc(F)ccc2N1CN1CCOCC1 | 33 | – | –
O=C1/C(=N\NC(=S)NCc2ccccc2)c2cc(F)ccc2N1CN1CCOCC1 | 0 | – | –
Cc1ccc(NC(=S)N/N=C2\C(=O)N(CN3CCCCC3)c3ccc(F)cc32)cc1 | 51 | – | –
O=C1/C(=N\NC(=S)Nc2ccc(Cl)cc2)c2cc(F)ccc2N1CN1CCOCC1 | 58 | – | –
O=C1/C(=N\NC(=S)Nc2ccc(Cl)cc2)c2cc(F)ccc2N1CN1CCCCC1 | 63 | – | –
O=C1/C(=N\NC(=S)Nc2ccccc2)c2cc([N+](=O)[O-])ccc2N1CN1CCCCC1 | 31 | – | –
Cc1ccc(NC(=S)N/N=C2\C(=O)N(CN3CCOCC3)c3ccc([N+](=O)[O-])cc32)cc1 | 92 | > 6.25 | 17 (≈ 37.4 µM)
O=C1/C(=N\NC(=S)Nc2ccc(Cl)cc2)c2cc([N+](=O)[O-])ccc2N1CN1CCOCC1 | 65 | – | –
O=C1/C(=N\NC(=S)Nc2ccc(F)cc2)c2cc(F)ccc2N1CN1CCCCC1 | 38 | – | –
O=C1/C(=N\NC(=S)Nc2ccc(Cl)cc2)c2cc([N+](=O)[O-])ccc2N1CN1CCCCC1 | 54 | – | –
C=CCN1C(=O)CS/C1=N/N=C1\C(=O)Nc2ccc([N+](=O)[O-])cc21 | 2 | – | –
O=C1Nc2ccc([N+](=O)[O-])cc2/C1=N/N=C1/SCC(=O)N1c1ccccc1 | 0 | – | –
Cc1ccc(N2C(=O)CS/C2=N/N=C2\C(=O)Nc3ccc([N+](=O)[O-])cc32)cc1 | 17 | – | –
O=C1Nc2ccc([N+](=O)[O-])cc2/C1=N/N=C1/SCC(=O)N1c1ccc(Cl)cc1 | 0 | – | –

SMILES | inhibition of growth at 6.25 µg/mL [1] [%] | MIC [2] [µg/mL] | IC50 (Vero) [µg/mL]
C=CCN1C(=O)C(C)S/C1=N/N=C1\C(=O)Nc2ccc([N+](=O)[O-])cc21 (configuration not stated) | 3 | – | –
CCCCN1C(=O)C(C)S/C1=N/N=C1\C(=O)Nc2ccc([N+](=O)[O-])cc21 (configuration not stated) | 10 | – | –
CC1S/C(=N/N=C2\C(=O)Nc3ccc([N+](=O)[O-])cc32)N(c2ccccc2)C1=O (configuration not stated) | 9 | – | –
CC1S/C(=N/N=C2\C(=O)Nc3ccc([N+](=O)[O-])cc32)N(c2ccc(Br)cc2)C1=O (configuration not stated) | 3 | – | –
O=C1Nc2ccc([N+](=O)[O-])cc2/C1=N/NC(=S)NC1CCCCC1 | 90 | > 6.25 | 4.74 (≈ 13.6 µM)
Cc1ccc(NC(=S)N/N=C2\C(=O)Nc3ccc([N+](=O)[O-])cc32)cc1 | 93 | 6.25 (≈ 17.6 µM) | 2.45 (≈ 6.89 µM)
O=C1Nc2ccc([N+](=O)[O-])cc2/C1=N/NC(=S)Nc1ccc(Br)cc1 | 90 | > 6.25 | 2.59 (≈ 6.16 µM)
O=C1Nc2ccc(F)cc2/C1=N/NC(=S)Nc1ccc(Cl)cc1 | 37 | – | –
O=C1Nc2ccc(F)cc2/C1=N/NC(=S)Nc1ccc(F)cc1 | 58 | – | –
CCNC(=S)N/N=C1\C(=O)Nc2ccc([N+](=O)[O-])cc21 | 0 | – | –
CCCCNC(=S)N/N=C1\C(=O)Nc2ccc([N+](=O)[O-])cc21 | 42 | – | –
CCCCNC(=S)N/N=C1\C(=O)Nc2ccc(F)cc21 | 16 | – | –
O=C1Nc2ccc(F)cc2/C1=N/NC(=S)NC1CCCCC1 | 39 | – | –
Cc1ccc(NC(=S)N/N=C2\C(=O)Nc3ccc(F)cc32)cc1 | 36 | – | –
CCNC(=S)N/N=C1\C(=O)Nc2ccc(F)cc21 | 8 | – | –
CC1S/C(=N/N=C2\C(=O)Nc3ccc([N+](=O)[O-])cc32)N(c2ccc([N+](=O)[O-])cc2)C1=O (configuration not stated) | 9 | – | –
O=C1Nc2ccc([N+](=O)[O-])cc2/C1=N/NC(=S)Nc1ccc([N+](=O)[O-])cc1 | 2 | – | –
CNC(=S)N/N=C1\C(=O)N(CN2CCOCC2)c2ccc(F)cc21 | 12 | – | –
O=C1Nc2ccc([N+](=O)[O-])cc2/C1=N/N=C1/SCC(=O)N1c1ccc(F)cc1 | 0 | – | –
CC1S/C(=N/N=C2\C(=O)Nc3ccc([N+](=O)[O-])cc32)N(C2CCCCC2)C1=O (configuration not stated) | 28 | – | –
CCCCN1C(=O)CS/C1=N/N=C1\C(=O)Nc2ccc([N+](=O)[O-])cc21 | 0 | – | –
O=C1Nc2ccc([N+](=O)[O-])cc2/C1=N/N=C1/SCC(=O)N1C1CCCCC1 | 0 | – | –
O=C1Nc2ccc([N+](=O)[O-])cc2/C1=N/N=C1/SCC(=O)N1c1ccc(Br)cc1 | 0 | – | –

SMILES | inhibition of growth at 6.25 µg/mL [1] [%] | MIC [2] [µg/mL] | IC50 (Vero) [µg/mL]
O=C1/C(=N\NC(=S)Nc2ccccc2)c2cc(F)ccc2N1CN1CCCCC1 | 45 | – | –
CN1C(=O)CS/C1=N/N=C1\C(=O)Nc2ccc([N+](=O)[O-])cc21 | 0 | – | –
O=C1Nc2ccc(F)cc2/C1=N/NC(=S)Nc1ccccc1 | 61 | – | –
CNC(=S)N/N=C1\C(=O)N(CN2CCOCC2)c2ccc([N+](=O)[O-])cc21 | 96 | > 6.25 | 7.61 (≈ 20.1 µM)
O=C1/C(=N\NC(=S)NC2CCCCC2)c2cc([N+](=O)[O-])ccc2N1CN1CCCCC1 | 87 | – | –
Cc1ccc(NC(=S)N/N=C2\C(=O)N(CN3CCCCC3)c3ccc([N+](=O)[O-])cc32)cc1 | 88 | – | –
O=C1Nc2ccc([N+](=O)[O-])cc2/C1=N/NC(=S)Nc1ccccc1 | 33 | – | –
CC1S/C(=N/N=C2\C(=O)Nc3ccc([N+](=O)[O-])cc32)N(c2ccc(F)cc2)C1=O (configuration not stated) | 5 | – | –
Cc1ccc(N2C(=O)C(C)S/C2=N/N=C2\C(=O)Nc3ccc([N+](=O)[O-])cc32)cc1 (configuration not stated) | 0 | – | –
CC1S/C(=N/N=C2\C(=O)Nc3ccc([N+](=O)[O-])cc32)N(c2ccc(Cl)cc2)C1=O (configuration not stated) | 0 | – | –
O=C1Nc2ccc(F)cc2/C1=N/NC(=S)Nc1ccc([N+](=O)[O-])cc1 | 31 | – | –
C=CCNC(=S)N/N=C1\C(=O)Nc2ccc([N+](=O)[O-])cc21 | 25 | – | –
O=C1/C(=N\NC(=S)Nc2ccc(F)cc2)c2cc(F)ccc2N1CN1CCOCC1 | 48 | – | –
CCCCNC(=S)N/N=C1\C(=O)N(CN2CCOCC2)c2ccc(F)cc21 | 34 | – | –
O=C1/C(=N\NC(=S)NCc2ccccc2)c2cc(F)ccc2N1CN1CCCCC1 | 3 | – | –
O=C1/C(=N\NC(=S)Nc2ccccc2)c2cc(F)ccc2N1CN1CCOCC1 | 56 | – | –
CCNC(=S)N/N=C1\C(=O)N(CN2CCOCC2)c2ccc(F)cc21 | 1 | – | –
CCNC(=S)N/N=C1\C(=O)N(CN2CCCCC2)c2ccc(F)cc21 | 2 | – | –
O=C1Nc2ccc([N+](=O)[O-])cc2/C1=N/NC(=S)Nc1ccc(Cl)cc1 | 75 | – | –
C=CCNC(=S)N/N=C1\C(=O)Nc2ccc(F)cc21 | 30 | – | –
CO[C@H]1/C=C/O[C@@]2(C)Oc3c(C)c(O)c4c(O)c(c(/C=N/N5CCN(C)CC5)c(O)c4c3C2=O)NC(=O)/C(C)=C\C=C\[C@H](C)[C@H](O)[C@@H](C)[C@@H](O)[C@@H](C)[C@H](OC(C)=O)[C@@H]1C [RIFAMPIN] | 97 | 0.125 (≈ 0.152 µM) | > 100
